Test systems include DLD-1 colon; TK-10 renal; CAKI-1 renal; M19-MEL melanoma; DMS 273 small cell lung; DU-145 prostate; KM12 colon; BT-549 breast; RXF 393 renal; HS 578T breast; HCC-2998 colon; NCI/ADR-RES ovarian.
Test in all cases: inhibition of tumour cell growth, NCI panel, 48 h

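Protocol summary: plate cells (96-well), add compound at 5 concentrations, incubate 48 h, interpolate endpoints linearly. GI50 = concentration required for 50% inhibition of growth. TGI is the concentration that stops growth completely.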 A value given as a limit tells only on which side of the number the result lay.

Take `COc1ccc2nc3ccccc3c(NCCCCCCN(CCCl)CCCl)c2c1`: the TGI with DLD-1 colon came out at 2.2 µM; in the assay on TK-10 renal it was 23.8 µM; with CAKI-1 renal it was 0.197 µM; in the assay with M19-MEL melanoma, 5.12 µM; in the assay on DMS 273 small cell lung it was 0.206 µM; with DU-145 prostate it was 1.47 µM. The compound further came in with a TGI with KM12 colon of 1.14 µM.

As to `COC(=O)C1=C(C(=O)OC)SC2(S1)C1=C(CCCC1)SC(C(=O)OC)=C2C(=O)OC`, the TGI came out at 24.7 µM with TK-10 renal; 25.1 µM in the assay on BT-549 breast; 6.91 µM with RXF 393 renal; 30.7 µM in the assay with HS 578T breast; 28.2 µM in the assay with HCC-2998 colon; 13.5 µM in the assay on CAKI-1 renal. Also, the TGI in the assay on DU-145 prostate was found to be 3.54 µM; in the assay with NCI/ADR-RES ovarian it was 40.9 µM; in the assay on KM12 colon, 19 µM.

On to `Nc1ccc2[nH]c3c(-c4ccccc4)nccc3c2c1`, for which the TGI in the assay on DLD-1 colon was > 100 µM; with RXF 393 renal it was > 96.5 µM; in the assay with HCC-2998 colon, 96.8 µM; in the assay with M19-MEL melanoma it was > 100 µM; with DMS 273 small cell lung it was > 100 µM; with NCI/ADR-RES ovarian, > 100 µM. The TGI with KM12 colon was > 100 µM.

With `COc1cc(Nc2c3ccccc3nc3ccccc23)ccc1NS(C)(=O)=O`, the TGI was 22 µM in the assay on DLD-1 colon, 28.8 µM in the assay on HCC-2998 colon and 22.3 µM with M19-MEL melanoma.

With `O=C(NC(Cc1ccc(I)cc1)C(=O)O)c1ccc(Br)cc1` (configuration not stated), the TGI with DLD-1 colon, in the assay on RXF 393 renal, in the assay on HCC-2998 colon, in the assay on CAKI-1 renal, in the assay on M19-MEL melanoma and in the assay on DMS 273 small cell lung was > 100 µM throughout. Moreover, the TGI in the assay on NCI/ADR-RES ovarian and in the assay with KM12 colon was > 100 µM throughout.

On to `C[C@]12CCc3nc(Nc4ccccc4)sc3C1=CC[C@@H]1[C@@H]2CC[C@]2(C)/C(=N/NC(N)=S)CC[C@@H]12`, for which the GI50 was 46.4 µM with TK-10 renal; 3.26 µM in the assay on BT-549 breast; 2.18 µM with RXF 393 renal; > 100 µM with HS 578T breast; 32.6 µM in the assay on HCC-2998 colon; 2.96 µM in the assay with DU-145 prostate. The GI50 in the assay with NCI/ADR-RES ovarian is 4.01 µM; in the assay with KM12 colon, 6.17 µM. The TGI in the assay on TK-10 renal is > 100 µM; in the assay with BT-549 breast it was > 100 µM; in the assay on RXF 393 renal, 5.09 µM; with HS 578T breast it was > 100 µM; in the assay on HCC-2998 colon it was > 100 µM; in the assay with DU-145 prostate, > 100 µM. The TGI in the assay with NCI/ADR-RES ovarian and in the assay with KM12 colon was > 100 µM throughout.

Turning to `COc1ccc(/C(Cl)=C(\C=O)c2ccc(F)cc2)cc1OC`, the TGI with DLD-1 colon is 78.4 µM; in the assay with TK-10 renal, > 100 µM; in the assay with CAKI-1 renal, 63.2 µM; in the assay on M19-MEL melanoma it was 66.1 µM; with DMS 273 small cell lung it was 97.3 µM.

In the case of `N=C(N)c1ccc(N=Nc2c(O)ccc3c2[nH]c2ccccc23)cc1`, the TGI in the assay on TK-10 renal is > 95.3 µM; in the assay with BT-549 breast, 99.4 µM; with RXF 393 renal it was > 100 µM; in the assay with HS 578T breast, > 100 µM; in the assay on CAKI-1 renal, > 100 µM; in the assay with DU-145 prostate, > 100 µM. In the assay with NCI/ADR-RES ovarian, the TGI was > 100 µM.

Source of the values: PubChem BioAssay (NCI).
